Reference: PubChem BioAssay AID330 (DTP/NCI, 2004)
“And” between values parts separate entries of the source, which are not always exact repeats. Identical values can stand only once. Toxic doses and inconclusive results are not listed.

Tested on: P388 leukemia ip, CD2F1 mice, survival T/C
Assay: NCI In Vivo Anticancer Drug Screen. Data for tumor model P388 Leukemia (intraperitoneal) in CD2F1 (CDF1) mice
Conditions: endpoint: median survival time, higher = longer survival
Method in brief: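 Mice carrying the transplanted tumor received test compound or vehicle. Survival was recorded in each group, and the value is the treated-group measurement divided by that of the vehicle-treated control group.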

[1] = dose: 50.0 mg/kg/injection, schedule: Q01DX009 (ip), vehicle: Klucel (hydroxypropylcellulose) (HPC)
[2] = dose: 100.0 mg/kg/injection, schedule: Q01DX009 (ip), vehicle: Klucel (hydroxypropylcellulose) (HPC)
[3] = dose: 200.0 mg/kg/injection, schedule: Q01DX009 (ip), vehicle: Klucel (hydroxypropylcellulose) (HPC)
[4] = dose: 100.0 mg/kg/injection, schedule: Q04DX002 (ip), vehicle: Klucel (hydroxypropylcellulose) (HPC)
[5] = dose: 200.0 mg/kg/injection, schedule: Q04DX002 (ip), vehicle: Klucel (hydroxypropylcellulose) (HPC)
[6] = dose: 400.0 mg/kg/injection, schedule: Q04DX002 (ip), vehicle: Klucel (hydroxypropylcellulose) (HPC)
[7] = dose: 50.0 mg/kg/injection, schedule: Q01DX005 (ip), vehicle: Klucel (hydroxypropylcellulose) (HPC)
[8] = dose: 25.0 mg/kg/injection, schedule: Q04DX003 (ip), vehicle: saline with Tween-80
[9] = dose: 50.0 mg/kg/injection, schedule: Q01DX005 (ip), vehicle: saline with Tween-80
[10] = dose: 100.0 mg/kg/injection, schedule: Q01DX005 (ip), vehicle: saline with Tween-80
[11] = dose: 200.0 mg/kg/injection, schedule: Q01DX005 (ip), vehicle: saline with Tween-80
[12] = dose: 200.0 mg/kg/injection, schedule: Q01DX009 (ip), vehicle: saline
[13] = dose: 400.0 mg/kg/injection, schedule: Q01DX009 (ip), vehicle: Klucel (hydroxypropylcellulose) (HPC)
[14] = dose: 100.0 mg/kg/injection, schedule: Q01DX005 (ip), vehicle: Klucel (hydroxypropylcellulose) (HPC)
[15] = dose: 200.0 mg/kg/injection, schedule: Q01DX005 (ip), vehicle: Klucel (hydroxypropylcellulose) (HPC)
[16] = dose: 15.0 mg/kg/injection, schedule: Q01DX005 (ip), vehicle: Klucel (hydroxypropylcellulose) (HPC)
[17] = dose: 30.0 mg/kg/injection, schedule: Q01DX005 (ip), vehicle: Klucel (hydroxypropylcellulose) (HPC)

Which results are given for `CCC[CH2][Sn]([CH2]CCC)([S]CC(=O)OCc1ccccc1)[S]CC(=O)OCc1ccccc1`?
T/C (dose: 12.5 mg/kg/injection, schedule: Q01DX001 (ip), vehicle: Klucel (hydroxypropylcellulose) (HPC)): 108 % of control; T/C (dose: 25.0 mg/kg/injection, schedule: Q01DX001 (ip), vehicle: Klucel (hydroxypropylcellulose) (HPC)): 116 % of control; T/C (dose: 50.0 mg/kg/injection, schedule: Q01DX001 (ip), vehicle: Klucel (hydroxypropylcellulose) (HPC)): 108 % of control

`Nc1c(Cl)cc(Cl)c(-c2c(Cl)cc(Cl)c([N+](=O)[O-])c2Cl)c1Cl` was tested. Which T/C [1] did it give?
Its T/C is 103 % of control.

And the T/C [2]?
The T/C was 93 % of control.

What about the T/C [3] of the same compound?
The T/C was 100 % of control.

What does the source list for `CS(=O)(=O)CS(=O)CS(=O)CS(=O)CC(NC(=O)CCC(N)C(=O)O)C(=O)O` (centres undefined)?
T/C (dose: 12.5 mg/kg/injection, schedule: Q01DX005 (ip), vehicle: saline): 96 % of control; T/C (dose: 25.0 mg/kg/injection, schedule: Q01DX005 (ip), vehicle: saline): 98 % of control; T/C (dose: 50.0 mg/kg/injection, schedule: Q01DX005 (ip), vehicle: saline): 97 % of control; T/C (dose: 100.0 mg/kg/injection, schedule: Q01DX005 (ip), vehicle: suspension in saline): 108 % of control

With `O=C(O)CCc1nc(-c2ccccc2)nc2c1CCc1ccccc1-2` as the compound, how does the T/C [4] read?
The T/C was 92 % of control.

What about the T/C [5] of the same compound?
Its T/C is 97 % of control.

What about the T/C [6] of the same compound?
Its T/C is 98 % of control.

How did the T/C (dose: 50.0 mg/kg/injection, schedule: Q01DX009 (ip), vehicle: saline + alcohol) turn out when `CCCCCCC1(/C=C/c2ccc(Cl)c(Cl)c2)OCCCO1` was run?
The T/C was 98 % of control.

What about the T/C (dose: 100.0 mg/kg/injection, schedule: Q01DX009 (ip), vehicle: saline + alcohol) of the same compound?
The T/C was 93 % of control.

And the T/C (dose: 200.0 mg/kg/injection, schedule: Q01DX009 (ip), vehicle: saline + alcohol)?
Its T/C is 98 % of control.

`C1=CCC(CC[Si]23OCCN(CCO2)CCO3)CC1` (centres undefined) was tested. Which T/C (dose: 12.5 mg/kg/injection, schedule: Q01DX005 (ip), vehicle: Klucel (hydroxypropylcellulose) (HPC)) did it give?
Its T/C is 103 % of control.

What about the T/C (dose: 25.0 mg/kg/injection, schedule: Q01DX005 (ip), vehicle: Klucel (hydroxypropylcellulose) (HPC)) of the same compound?
The T/C was 96 % of control.

What about the T/C [7] of the same compound?
The T/C was 101 % of control and 96 % of control.

Which results are given for `CC1(C)N=C(N)N=C(N)N1c1ccc(CNC(=O)Nc2ccc(S(=O)(=O)F)cc2)c(Cl)c1`?
T/C (dose: 132.0 mg/kg/injection, schedule: Q04DX003 (ip), vehicle: saline with Tween-80): 154 % of control; T/C (dose: 200.0 mg/kg/injection, schedule: Q04DX003 (ip), vehicle: saline with Tween-80): 154 % of control

With `Cn1cnc2cc(N3CCCCC3)c([N+](=O)[O-])cc2c1=O` as the compound, how does the T/C [1] read?
Its T/C is 101 % of control.

What about the T/C [2] of the same compound?
Its T/C is 107 % of control.

What about the T/C [3] of the same compound?
Its T/C is 99 % of control.

Which results are given for `CCN(CC)CCCC(C)NC1CCCc2cc3c(cc21)C(=O)c1ccccc1C3=O` (centres undefined)?
T/C (dose: 6.25 mg/kg/injection, schedule: Q04DX003 (ip), vehicle: saline with Tween-80): 98 % of control; T/C (dose: 12.5 mg/kg/injection, schedule: Q04DX003 (ip), vehicle: saline with Tween-80): 94 % of control; T/C [8]: 90 % of control

What does the source list for `O=c1c2ccccc2ncn1Cc1ccco1`?
T/C [9]: 98 % of control; T/C [10]: 98 % of control; T/C [11]: 99 % of control

Which T/C (dose: 50.0 mg/kg/injection, schedule: Q01DX009 (ip), vehicle: saline) does the source give for `Cc1ccc(S(=O)(=O)Nc2cc(S(=O)(=O)O)c(N)c3c2C(=O)c2ccccc2C3=O)cc1` here?
The T/C was 86 % of control.

What about the T/C (dose: 100.0 mg/kg/injection, schedule: Q01DX009 (ip), vehicle: saline) of the same compound?
The T/C was 97 % of control.

What about the T/C [12] of the same compound?
Its T/C is 101 % of control.

Which results are given for `Cn1ncc2c(=O)[nH]cnc21`?
T/C [1]: 93 % of control; T/C [2]: 93 % of control; T/C [3]: 96 % of control; T/C [13]: 97 % of control

With `N#CC#Cc1cccc(C#CC#N)c1` as the compound, how does the T/C (dose: 6.25 mg/kg/injection, schedule: Q01DX001 (ip), vehicle: saline with Tween-80) read?
The T/C was 110 % of control.

And the T/C (dose: 12.5 mg/kg/injection, schedule: Q01DX001 (ip), vehicle: saline with Tween-80)?
The T/C was 100 % of control.

Which results are given for `BrCCc1cc(Br)c(CCBr)cc1Br`?
T/C [7]: 97 % of control; T/C [14]: 97 % of control; T/C [15]: 107 % of control

Which T/C (dose: 6.25 mg/kg/injection, schedule: Q01DX009 (ip), vehicle: saline) does the source give for `CCCCCCC[CH2][Sn]([S][Sn]([CH2]CCCCCCC)([c]1ccccc1)[c]1ccccc1)([c]1ccccc1)[c]1ccccc1` here?
The T/C was 101 % of control.

And the T/C (dose: 12.5 mg/kg/injection, schedule: Q01DX009 (ip), vehicle: saline)?
Its T/C is 98 % of control.

What about the T/C (dose: 25.0 mg/kg/injection, schedule: Q01DX009 (ip), vehicle: saline) of the same compound?
Its T/C is 101 % of control.

What about the T/C [12] of the same compound?
The T/C was 86 % of control.

Which results are given for `CN1CCCC(OC(=O)Oc2ccccc2)C1` (centres undefined)?
T/C (dose: 50.0 mg/kg/injection, schedule: Q01DX001 (ip), vehicle: other): 101 % of control; T/C (dose: 100.0 mg/kg/injection, schedule: Q01DX001 (ip), vehicle: other): 100 % of control; T/C (dose: 200.0 mg/kg/injection, schedule: Q01DX001 (ip), vehicle: other): 102 % of control; T/C (dose: 400.0 mg/kg/injection, schedule: Q01DX001 (ip), vehicle: other): 99 % of control

`CN(C)C(=S)Nc1ccc(S(=O)(=O)N2CCCCC2)cc1` was tested. Which T/C [1] did it give?
Its T/C is 105 % of control.

What about the T/C [2] of the same compound?
The T/C was 105 % of control.

And the T/C [3]?
Its T/C is 105 % of control.

And the T/C [13]?
Its T/C is 101 % of control.

For `O=C(O)c1ccccc1Cc1cccc2ccccc12`, which T/C [4] is on record?
Its T/C is 91 % of control.

And the T/C [5]?
The T/C was 96 % of control.

And the T/C [6]?
The T/C was 99 % of control.

How did the T/C [1] turn out when `CN1NC(=O)c2ccccc2NC1=S` was run?
Its T/C is 104 % of control.

And the T/C [2]?
Its T/C is 91 % of control.

What about the T/C [3] of the same compound?
The T/C was 101 % of control.

For `COc1ccc2c(c1)CCC1(C)C2=CC(=O)/C1=C\[O-].COc1ccc2c(c1)CCC1(C)C2=CC(=O)/C1=C\[O-].[Cu+2]` (centres undefined), which T/C [8] is on record?
Its T/C is 90 % of control.

What about the T/C (dose: 50.0 mg/kg/injection, schedule: Q04DX003 (ip), vehicle: saline with Tween-80) of the same compound?
The T/C was 90 % of control.

What about the T/C (dose: 100.0 mg/kg/injection, schedule: Q04DX003 (ip), vehicle: saline with Tween-80) of the same compound?
The T/C was 86 % of control.

For `CC1C(O)C(C)C(c2ccccc2)N(C)C1c1ccccc1` (centres undefined), which T/C [9] is on record?
The T/C was 100 % of control.

And the T/C [10]?
Its T/C is 106 % of control.

What about the T/C [11] of the same compound?
Its T/C is 106 % of control.

`O=[N+]([O-])c1ccc([S][Pb]([c]2ccccc2)([c]2ccccc2)[c]2ccccc2)cc1` was tested. Which T/C (dose: 6.25 mg/kg/injection, schedule: Q01DX009 (ip), vehicle: Klucel (hydroxypropylcellulose) (HPC)) did it give?
The T/C was 100 % of control.

What about the T/C (dose: 12.5 mg/kg/injection, schedule: Q01DX009 (ip), vehicle: Klucel (hydroxypropylcellulose) (HPC)) of the same compound?
The T/C was 102 % of control.

What about the T/C (dose: 25.0 mg/kg/injection, schedule: Q01DX009 (ip), vehicle: Klucel (hydroxypropylcellulose) (HPC)) of the same compound?
The T/C was 89 % of control.

`S=c1nn[nH]n1-c1ccccc1.[Cd]` was tested. Which T/C (dose: 3.13 mg/kg/injection, schedule: Q01DX009 (ip), vehicle: saline with Tween-80) did it give?
Its T/C is 98 % of control.

What about the T/C (dose: 6.25 mg/kg/injection, schedule: Q01DX009 (ip), vehicle: saline with Tween-80) of the same compound?
Its T/C is 94 % of control.

How did the T/C [9] turn out when `COc1cc(/C(C)=C\CP(=O)(c2ccccc2)c2ccccc2)c(C(=O)O)cc1C` was run?
The T/C was 106 % of control.

What about the T/C [10] of the same compound?
The T/C was 106 % of control.

And the T/C [11]?
The T/C was 103 % of control.

How did the T/C (dose: 7.5 mg/kg/injection, schedule: Q01DX005 (ip), vehicle: Klucel (hydroxypropylcellulose) (HPC)) turn out when `COc1cc(Oc2c(C)c(Cl)c(OC)c(Cl)c2OC)c2c(c1Cl)COC2=O` was run?
Its T/C is 97 % of control.

What about the T/C [16] of the same compound?
Its T/C is 97 % of control.

And the T/C [17]?
The T/C was 100 % of control.

For `COCN1C(=O)N2C(c3ccccc3)(c3ccccc3)C(C(=O)OC)=C(C(=O)OC)P12(c1ccccc1)c1ccccc1`, which T/C [16] is on record?
The T/C was 107 % of control.

And the T/C [17]?
The T/C was 99 % of control.

What about the T/C (dose: 60.0 mg/kg/injection, schedule: Q01DX005 (ip), vehicle: Klucel (hydroxypropylcellulose) (HPC)) of the same compound?
The T/C was 91 % of control and 97 % of control.

What about the T/C (dose: 240.0 mg/kg/injection, schedule: Q01DX005 (ip), vehicle: Klucel (hydroxypropylcellulose) (HPC)) of the same compound?
Its T/C is 87 % of control.

How did the T/C [7] turn out when `CN(C)c1ccc(C=C2C(=O)OC(C)(C)OC2=O)cc1` was run?
The T/C was 114 % of control.

And the T/C [14]?
The T/C was 105 % of control.

What about the T/C [15] of the same compound?
The T/C was 114 % of control.
